# Test results reported in patent publication US10807959B2, “WDR5-MLL1 inhibitors and modulators” (Vanderbilt University, priority 2018, dated 2020).
# Tests used:
# [1] = target: T1, WDR5 (Homo sapiens (Human), UniProt P61964); assay: TR-FRET binding assay, displacement of 10mer-Thr-FAM probe from His-tagged WDR5
# Procedure: The LanthaScreenTM Elite Tb-anti-HIS Antibody from ThermoFisher Scientific was used for this purpose. […] The ratio of the 520 and 495 signals are then utilized to generate a dose-response curve to calculate an IC50 value. […] WDR[…] tag protein is used at 2 nM.
# [2] = test system: MV4:11 cells; assay: Cellular viability / anti-proliferative activity, CellTiter-Glo, 7 day protocol; assay type: cell-based, human; details: 168 h
# Procedure: Anti proliferative activity using MLL-harboring cell lines. MV4:11 cells are grown in RPMI-1640 media supplemented with 10% FBS and 1% penicillin/streptomycin. Viability assays are performed by dispensing […] into each well of an opaque 384-well plate and adding compounds at the indicated concentrations in a final volume of 32 μL and a final concentration of DMSO of 0.1% for all samples. After a set incubation period, 7 day protocol, the viability of cells in each well is assessed using the CellTiter-Glo assay (Promega), read on a GloMax 96 Microplane Luminometer (Promega). Serial dilutions of each cell type are included in all assays to generate standard curves and determine assay measurements are taken within the dynamic range of the instrument. GI50 values are calculated based on three biological replicates, each with three technical replicates. Data are expressed as mean plus/minus S.E.M.
# [3] = target: T1, WDR5; assay: Fluorescence polarization anisotropy (FPA) competition assay, displacement of FITC-MLL or 10mer-Thr-FAM peptide; assay type: binding
# Text: The assay is run in 384-well format and is read on a BioTek Cytation. […] Replicate values are fit to a 4-parameter fit in XLFit to generate a single IC50 value for each compound that is then converted to a Ki value. Experiments are repeated to generate a 2nd, independent Ki value; values from the two experiments are averaged to produce the reported Ki value for the compound.
# [4] = Homo sapiens, MV4:11 leukemia cells after a 7 day incubation period
# [5] = Inhibition of WDR5 by TR-FRET assay
# [6] = cellular proliferation of MV4:11 human cancer cell lines, 7 day
# [7] = Inhibition of WDR5 by FPA assay
structure (smiles),measurement,setting,value
Cc1cc(CNC(=O)c2cc(CNC3=NCCN3)cc(-c3cnccc3C)c2)ccc1Cl [Example B88],Ki,[1],0.000115 µM
same,GI50,[2]; [4],0.536 µM
"Cc1cc(CNC(=O)c2cc(CNC3=NCCC3)cc(-c3cccc(CO)c3)c2)ccc1Cl [Example 63, N-(4-Chloro-3-methylbenzyl)-5-(((3,4-dihydro-2H-pyrrol-5-yl)amino)methyl)-3′-(hydroxymethyl)-[1,1′-biphenyl]-3-carboxamide]",Ki,[1]; [5],0.00088 µM
same,GI50,[2]; [6],1.9 µM
"COc1cc(OC)cc(C(C)NC(=O)c2cc(Cn3ccnc3C)cc(-c3ccc(F)nc3C)n2)c1 (stereo not drawn) [Example 159, N-(1-(3,5-Dimethoxyphenyl)ethyl)-6′-fluoro-2′-methyl-4-((2-methyl-1H-imidazol-1-yl)methyl)-[2,3′-bipyridine]-6-carboxamide]",Ki,[1]; [5],0.0039 µM
same,GI50,[2]; [6],1.2 µM
COc1ccnc(CNC(=O)c2cc(CNC3=NCCN3)cc(-c3ccc(F)cc3C)c2)c1 [Example B114],Ki,[1],0.000228 µM
same,GI50,[2]; [4],0.701 µM
"COc1cc(CNC(=O)c2cc(CNC3=NCCC3)nc(-c3ccc(F)cc3C(F)(F)F)c2)cc(OC)c1 [Example 91, 2-(((3,4-dihydro-2H-pyrrol-5-yl)amino)methyl)-N-(3,5-dimethoxybenzyl)-6-(4-fluoro-2-(trifluoromethyl)phenyl)isonicotinamide]",Ki,[1]; [5],0.0016 µM
same,GI50,[2]; [6],0.46 µM
"Cc1cc(F)ccc1-c1cc(Cn2ccnc2C)cc(C(=O)NCc2ccc(Cl)c(Cl)c2)n1 [Example 156, N-(3,4-dichlorobenzyl)-6-(4-fluoro-2-methylphenyl)-4-((2-methyl-1H-imidazol-1-yl)methyl)picolinamide]",GI50,[2]; [6],0.63 µM
"COc1cc(CNC(=O)c2cc(CNC3=NCCC3)cc(-c3ccc(F)nc3C)c2)cc(OC)c1 [Example 60, 3-(((3,4-Dihydro-2H-pyrrol-5-yl)amino)methyl)-N-(3,5-dimethoxybenzyl)-5-(6-fluoro-2-methylpyridin-3-yl)benzamide]",Ki,[1]; [5],0.00055 µM
same,GI50,[2]; [6],0.36 µM
"COc1ccnc(CNC(=O)c2cc(CNC3=NCCC3)cc(-c3ccc(F)nc3C)c2)c1 [Example 53, 3-(((3,4-Dihydro-2H-pyrrol-5-yl)amino)methyl)-5-(6-fluoro-2-methylpyridin-3-yl)-N-((4-methoxypyridin-2-yl)methyl)benzamide]",Ki,[1]; [5],0.00053 µM
same,GI50,[2]; [6],0.63 µM
"Cc1nc(F)ccc1-c1cc(Cn2ccnc2)cc(C(=O)NC(C2CC2)C2CC2)c1 [Example 133, 3-((1H-imidazol-1-yl)methyl)-N-(dicyclopropylmethyl)-5-(6-fluoro-2-methylpyridin-3-yl)benzamide]",Ki,[3]; [7],0.0035 µM
same,Ki,[1]; [5],0.0046 µM
"COc1cc(CNC(=O)c2cc(CNC3=NCCN3)cc(-c3ccc(F)cc3C)c2N)cc(OC)c1 [Example 169, 2-Amino-5-(((4,5-dihydro-1H-imidazol-2-yl)amino)methyl)-N-(3,5-dimethoxybenzyl)-4′-fluoro-2′-methyl-[1,1′-biphenyl]-3-carboxamide]",Ki,[1]; [5],0.0061 µM
same,GI50,[2]; [6],14 µM
"Cc1ccnc(C(NC(=O)c2cc(Cn3ccnc3)cc(-c3ccc(F)nc3C)c2)C2CC2)c1 (stereo not drawn) [Example 137, 3-((1H-Imidazol-1-yl)methyl)-N-(cyclopropyl(4-methylpyridin-2-yl)methyl)-5-(6-fluoro-2-methylpyridin-3-yl)benzamide]",Ki,[3]; [7],< 0.001 µM
same,Ki,[1]; [5],0.002 µM
"COc1cc(CNC(=O)c2cc(CNC3=NCCC3)cc(-c3ccnc(C)c3)c2)cc(OC)c1 [Example 57, 3-(((3,4-Dihydro-2H-pyrrol-5-yl)amino)methyl)-N-(3,5-dimethoxybenzyl)-5-(2-methylpyridin-4-yl)benzamide]",Ki,[1]; [5],0.003 µM
same,GI50,[2]; [6],2.8 µM
"CCn1cc(-c2cc(CNC(=N)C3CC3)cc(C(=O)N[C@H](c3ccc(F)c(C)c3)C3CC3)c2)c(C(F)(F)F)n1 [Example 105, (S)-3-(Cyclopropanecarboximidamidomethyl)-N-(cyclopropyl(4-fluoro-3-methylphenyl)methyl)-5-(1-ethyl-3-(trifluoromethyl)-1H-pyrazol-4-yl)benzamide]",Ki,[1]; [5],< 0.0001 µM
same,GI50,[2]; [6],0.01 µM
"COc1cc(CNC(=O)c2cc(CNC3=NCCC3)cc(-c3ccc(F)cc3C)c2NC(C)=O)cc(OC)c1 [Example 172, 2-Acetamido-5-(((3,4-dihydro-2H-pyrrol-5-yl)amino)methyl)-N-(3,5-dimethoxybenzyl)-4′-fluoro-2′-methyl-[1,1′-biphenyl]-3-carboxamide]",Ki,[1]; [5],0.0021 µM
same,GI50,[2]; [6],0.24 µM
"COc1cc(CN(C)C(=O)c2cc(CNC3=NCCC3)cc(-c3ccc(F)nc3C)c2)cc(OC)c1 [Example 56, 3-(((3,4-Dihydro-2H-pyrrol-5-yl)amino)methyl)-N-(3,5-dimethoxybenzyl)-5-(6-fluoro-2-methylpyridin-3-yl)-N-methylbenzamide]",Ki,[1]; [5],0.02 µM
same,GI50,[2]; [6],6.4 µM
"COc1cc(F)ccc1-c1cc(CNC2=NCCC2)cc(C(=O)NCc2ccc(Cl)c(C)c2)c1 [Example 70, N-(4-chloro-3-methylbenzyl)-5-(((3,4-dihydro-2H-pyrrol-5-yl)amino)methyl)-4′-fluoro-2′-methoxy-[1,1′-biphenyl]-3-carboxamide]",Ki,[1]; [5],0.0005 µM
same,GI50,[2]; [6],0.46 µM
"COc1cc(CNC(=O)c2cc(CNC3=NCCC3)cc(-c3ccc(F)cc3C)c2)cc(OC)c1 [Example 59, 5-(((3,4-Dihydro-2H-pyrrol-5-yl)amino)methyl)-N-(3,5-dimethoxybenzyl)-4′-fluoro-2′-methyl-[1,1′-biphenyl]-3-carboxamide]",Ki,[1]; [5],0.00074 µM
same,GI50,[2]; [6],0.79 µM
"Cc1cc(CNC(=O)c2cc(CNC3=NCCC3)cc(-c3cccnc3C(F)(F)F)c2)ccc1Cl [Example 67, N-(4-Chloro-3-methylbenzyl)-3-(((3,4-dihydro-2H-pyrrol-5-yl)amino)methyl)-5-(2-(trifluoromethyl)pyridin-3-yl)benzamide]",Ki,[1]; [5],< 0.0001 µM
same,GI50,[2]; [6],0.05 µM
"Cc1ccnc(C(NC(=O)c2cc(Cn3ccnc3)cc(-c3ccc(F)cc3Cl)n2)C2CC2)c1 (stereo not drawn) [Example 150, 4-((1H-Imidazol-1-yl)methyl)-6-(2-chloro-4-fluorophenyl)-N-(cyclopropyl(4-methylpyridin-2-yl)methyl)picolinamide]",Ki,[3]; [7],0.0011 µM
same,Ki,[1]; [5],0.00571 µM
"Cc1ccnc(C(NC(=O)c2cc(CNC3=NCCC3)cc(-c3ccc(F)cc3C(F)(F)F)n2)C2CC2)c1 (stereo not drawn) [Example 90, N-(Cyclopropyl(4-methylpyridin-2-yl)methyl)-4-(((3,4-dihydro-2H-pyrrol-5-yl)amino)methyl)-6-(4-fluoro-2-(trifluoromethyl)phenyl)picolinamide]",Ki,[1]; [5],0.0012 µM
same,GI50,[2]; [6],0.75 µM
"Cc1nc(F)ccc1-c1cc(Cn2ccnc2C)cc(C(=O)NCc2ccc(Cl)c(Cl)c2)n1 [Example 164, N-(3,4-dichlorobenzyl)-6′-fluoro-2′-methyl-4-((2-methyl-1H-imidazol-1-yl)methyl)-[2,3′-bipyridine]-6-carboxamide]",GI50,[2]; [6],1.1 µM
"O=C(NCc1ccc(Cl)c(Cl)c1)c1cc(Cn2ccnc2)cc(-c2ccc(F)cc2Cl)c1 [Example 116, 5-((1H-Imidazol-1-yl)methyl)-2′-chloro-N-(3,4-dichlorobenzyl)-4′-fluoro-[1,1′-biphenyl]-3-carboxamide]",GI50,[2]; [6],3.8 µM
"Cc1cc(CNC(=O)c2cc(CNC3=NCCC3)cc(-c3ccc(F)cc3C)c2)ccc1Cl [Example 64, N-(4-Chloro-3-methylbenzyl)-5-(((3,4-dihydro-2H-pyrrol-5-yl)amino)methyl)-4′-fluoro-2′-methyl-[1,1′-biphenyl]-3-carboxamide]",GI50,[2]; [6],0.28 µM
"Cc1cccc(CNC(=O)c2cc(Cn3ccnc3)cc(-c3ccc(F)cc3Cl)n2)n1 [Example 151, 4-((1H-Imidazol-1-yl)methyl)-6-(2-chloro-4-fluorophenyl)-N-((6-methylpyridin-2-yl)methyl)picolinamide]",Ki,[3]; [7],0.0087 µM
same,Ki,[1]; [5],0.032 µM
"COc1cc(CNC(=O)c2ccc(F)c(CNC3=NCCN3)c2)cc(OC)c1 [Example B15, 3-(((4,5-dihydro-1H-imidazol-2-yl)amino)methyl)-N-(3,5-dimethoxybenzyl)-4-fluorobenzamide]",GI50,[2]; [4],0.893 µM
"Cc1cnccc1-c1cc(Cn2ccnc2C)cc(C(=O)NCc2ccc(Cl)c(Cl)c2)n1 [Example 166, N-(3,4-Dichlorobenzyl)-3′-methyl-4-((2-methyl-1H-imidazol-1-yl)methyl)-[2,4′-bipyridine]-6-carboxamide]",GI50,[2]; [6],0.24 µM
"CCOc1ccc(C(=O)NC(C)c2cc(OC)cc(OC)c2)cc1CNC1=NCCN1 (stereo not drawn) [Example B51, 3-(((4,5-dihydro-1H-imidazol-2-yl)amino)methyl)-N-(1-(3,5-dimethoxyphenyl)ethyl)-4-ethoxybenzamides]",Ki,"[3]; Table B2, WDR5 WIN-site binding affinity, values not less than 1 nM (FPA)",0.00977 µM
"COc1cc(CNC(=O)c2cc(Cn3ccnc3)cc(Oc3ccccc3)c2)cc(OC)c1 [Example 120, 3-((1H-imidazol-1-yl)methyl)-N-(3,5-dimethoxybenzyl)-5-phenoxybenzamide]",Ki,[3]; [7],0.0051 µM
